# In patent publication US20060035969A1, “Novel modulators of the PPAR-type receptors and cosmetic/pharmaceutical compositions comprised thereof” (GALDERMA RESEARCH & DEVELOPMENT, S.N.C., priority 2003, published 2006):
# How the values were obtained:
# Type in all cases: cell-based
# PPARδ = target: T1, PPARδ (Homo sapiens, UniProt Q03181); assay: Cross curve PPAR transactivation test (PPARδ); details: HeLN cells stably transfected with ERE-βGlob-Luc-SV-Neo and Gal-hPPARδ; cross curves against reference agonist, Schild regression; read-out: PPAR delta Kd app
# T1 construct: It is a handle made for the test, not a second protein
# T1 sequence (Q03181 211-441 limits assumed): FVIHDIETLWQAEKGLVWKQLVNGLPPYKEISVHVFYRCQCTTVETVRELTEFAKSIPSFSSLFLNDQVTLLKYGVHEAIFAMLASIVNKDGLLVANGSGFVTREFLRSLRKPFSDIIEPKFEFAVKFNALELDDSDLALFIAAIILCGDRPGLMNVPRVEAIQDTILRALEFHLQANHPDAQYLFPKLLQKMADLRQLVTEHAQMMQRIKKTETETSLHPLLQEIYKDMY
# Experimental: (§1) The activation of receptors with an agonist (activator) in HeLN cells leads to the expression of a reporter gene, luciferase, which, in the presence of a substrate, generates light. The modulation of the receptors is measured as quantity of luminescence produced after incubating the cells in the presence of a reference agonist. The ligands will displace the agonist from its site. The measurement of the activity is performed by quantification of the light produced. This measurement makes it possible to determine the modulatory activity of the compounds according to the invention by determining the constant which is the affinity of the molecule for the receptor. Since this value can fluctuate according to the basal activity and the expression of the receptor, it is called apparent Kd (KdApp in nM).
# (§2) To determine this constant, “cross curves” for the product to be tested against a reference agonist are produced in a 96-well plate: 10 concentrations of the test product plus a concentration 0 are placed in a line, and 7 concentrations of the agonist plus one concentration 0 are placed in a column. This is 88 measurement points for 1 product and 1 receptor. The 8 remaining wells are used for repeatability controls. […]
# (§3) The various dilutions of the test products and of the reference ligand are added in an amount of 5 μl per well. […] After 5 minutes, the plates are read by the luminescence reader.
# PPARγ = target: T2, PPARγ (Homo sapiens, UniProt P37231); assay: Cross curve PPAR transactivation test (PPARγ); details: HeLN cells stably transfected with ERE-βGlob-Luc-SV-Neo and Gal-hPPARγ; cross curves against reference agonist, Schild regression; read-out: PPAR gamma Kd app
# T2 construct: It is a handle made for the test, not a second protein
# T2 sequence (P37231 238-505 limits assumed): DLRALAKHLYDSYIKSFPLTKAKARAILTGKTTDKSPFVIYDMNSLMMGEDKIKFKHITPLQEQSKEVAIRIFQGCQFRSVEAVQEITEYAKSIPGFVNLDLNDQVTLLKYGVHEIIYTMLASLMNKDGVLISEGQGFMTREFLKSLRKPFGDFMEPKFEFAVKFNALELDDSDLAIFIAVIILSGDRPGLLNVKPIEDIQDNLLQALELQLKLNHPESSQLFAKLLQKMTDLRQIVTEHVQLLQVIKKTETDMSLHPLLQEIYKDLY
# Experimental: as §1, §2, §3
# PPARα = target: T3, PPARα (Homo sapiens, UniProt Q07869); assay: Cross curve PPAR transactivation test (PPARα); details: HeLN cells stably transfected with ERE-βGlob-Luc-SV-Neo and Gal-hPPARα; cross curves against reference agonist, Schild regression; read-out: PPAR alpha Kd app
# T3 construct: It is a handle made for the test, not a second protein
# T3 sequence (Q07869 200-468 limits assumed): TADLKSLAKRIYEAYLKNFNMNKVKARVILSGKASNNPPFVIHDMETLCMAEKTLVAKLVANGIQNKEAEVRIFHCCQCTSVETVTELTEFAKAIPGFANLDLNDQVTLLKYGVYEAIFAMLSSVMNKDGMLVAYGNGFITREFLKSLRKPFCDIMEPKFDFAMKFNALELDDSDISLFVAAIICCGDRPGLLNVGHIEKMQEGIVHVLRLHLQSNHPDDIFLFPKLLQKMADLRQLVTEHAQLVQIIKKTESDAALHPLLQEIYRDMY
# Experimental: as §1, §2, §3
Structure (SMILES),Kd (PPARδ),Kd (PPARγ),Kd (PPARα)
"CCCCCCCN(C(=O)NCCc1ccccc1)c1cccc(Sc2cccc(CC(=O)O)c2)c1 [Example 25b, {3-[3-(1-Heptyl-3-phenethylureido)phenylsulfanyl]phenyl}acetic acid]",60 nM,500 nM,
"O=C(O)Cc1cccc(Sc2ccc(N(CCc3ccccc3)C(=O)NC3CCCCC3)cc2)c1 [Example 18b, {3-[4-(3-Cyclohexyl-1-phenethylureido)phenylsulfanyl]phenyl}acetic acid]",15 nM,30 nM,250 nM
